Publication PMC4289617 (Journal of medicinal chemistry, 2010)
Peptide text beside a SMILES is read from it.

Target: WDR5 (Homo sapiens, UniProt P61964)
Test: FP-based competitive binding assay
Details: for times increase in binding affinity upon N-terminal acetylation: acetylated vs free amino group peptide; for binding to WDR5: up to the concentrations tested; for times less potent than Ac-3mer: compared to Ac-3mer (Ac-ARA-NH2)

## CC(=O)N[C@@H](C)C(=O)N[C@@H](CCCNC(=N)N)C(=O)N[C@@H](C)C(=O)N[C@@H](CCC(=O)O)C(=O)N[C@H](C(=O)N[C@@H](Cc1c[nH]cn1)C(=O)N[C@@H](CC(C)C)C(=O)N[C@@H](CCCNC(=N)N)C(=O)N[C@@H](CCCCN)C(=O)N[C@@H](CO)C(N)=O)C(C)C [Ac-10mer]
Ki ratio vs WIN peptide
  times more potent than the WIN peptide: 50

## CC(=O)N[C@@H](C)C(=O)N[C@@H](CCCNC(=N)N)C(=O)N[C@H](C(N)=O)[C@@H](C)O [Ac-H3-3mer, Ac-ART-NH2] (Ac-Ala-Arg-Thr-NH2)
  times increase in binding affinity upon N-terminal acetylation: 1500
Compared to Ac-ARA-NH2
  times more potent than Ac-ARA-NH2: 6

## CC(=O)N[C@@H](C)C(=O)N[C@@H](CCCNC(=N)N)C(=O)N[C@H](C(=O)N[C@@H](CCCCN)C(=O)N[C@@H](CCC(N)=O)C(=O)N[C@H](C(=O)N[C@@H](C)C(=O)N[C@@H](CCCNC(=N)N)C(=O)N[C@@H](CCCCN)C(=O)N[C@@H](CO)C(N)=O)[C@@H](C)O)[C@@H](C)O [Ac-H3-10mer]
  times increase in binding affinity upon N-terminal acetylation: > 10000

## C[C@H](N)C(=O)N[C@@H](CCCNC(=N)N)C(=O)N[C@@H](C)C(N)=O [H2N-3mer, H2N-ARA-NH2] (H-Ala-Arg-Ala-NH2)
  binding to WDR5: does not bind to WDR5

## CC(=O)N[C@@H](C)C(=O)N[C@@H](CCCNC(=N)N)C(=O)N(C)[C@@H](C)C(N)=O [Δ1, Ac-AR-(N-Me)A-NH2]
  binding to WDR5: complete loss of its binding to WDR5

## CC(=O)N[C@@H](C)C(=O)N[C@@H](CCCNC(=N)N)C(=O)N[C@@H](C)C(=O)N(C)C [Δ2b, Ac-ARA-CONMe2] (Ac-Ala-Arg-Ala-NMe2)
  times less potent than Ac-3mer: 50

## COC(=O)[C@H](C)NC(=O)[C@H](CCCNC(=N)N)NC(=O)[C@H](C)NC(C)=O [Δ2c, Ac-ARA-COOCH3] (Ac-Ala-Arg-Ala-OMe)
  times less potent than Ac-3mer: 10

## Ac-ARAEVHL-NH2 (N-terminus and C-terminus assumed) [Ac-7mer]
Compared to Ac-10mer
  fold decrease in binding affinity vs Ac-10mer: 10

## Ac-ARTKQTA-NH2 [Ac-H3-7mer, Ac-ARTKQTA]
  times increase in binding affinity upon N-terminal acetylation: > 10000
